Measurements taken from article PMC9603750, “Chalcone-Acridine Hybrid Suppresses Melanoma Cell Progression via G2/M Cell Cycle Arrest, DNA Damage, Apoptosis, and Modulation of MAP Kinases Activity” (International Journal of Molecular Sciences, 2022).

Experiments:
Test in all cases: MTT assay (metabolic activity)
BLM = format: cell-based, human; settings: Homo sapiens; BLM, 72 h incubation
Protocol: (§1) Cell lines A2058 (human melanoma lymph node metastasis, cat. 91100402) from ECACC (Public Health England, Salisbury, UK) and BLM (human melanoma lung metastasis a gift from prof. K. Smetana, Institute of Anatomy, Charles University in Prague) were cultured in a medium consisting of high glucose Dulbecco’s Modified Eagle’s Medium (DMEM) and sodium pyruvate (GE Healthcare, Piscataway, NJ, USA). The growth medium was supplemented with a 10% fetal bovine serum (FBS) and antibiotic/antimycotic solution 1 × HyClone™ (GE Healthcare, Chicago, IL, USA). The MCF-10A (human mammary epithelial cells) cell line was cultured in a medium consisting of high glucose Dulbecco’s Modified Eagle’s Medium F12 (DMEM/F12) (Biosera, Kansas City, MO, USA). The growth medium was supplemented with a 10% FBS, antibiotic/antimycotic solution 1 × HyClone™ (GE Healthcare, Chicago, IL, USA), epidermal growth factor (EGF) (20 ng/mL final), hydrocortisone (0.5 μg/mL final) and insulin (10 μg/mL final) (Sigma-Aldrich Chemie, Steinheim, Germany). Cells were cultured in humidified air at 37 °C with atmosphere containing 5% CO2.
(§2) The half-maximal inhibitory concentration values (IC50) and metabolism inhibition of tested synthetic chalcone derivatives were determined by MTT (3-(4,5-di-methylthiazol-2-yl)2,5-diphenyltetrazolium bromide) colorimetric assay (Sigma-Aldrich Chemie, Steinheim, Germany). Tested cell lines were seeded at a density of 5 × 10^3 cells/well in 96-well culture plates. After 24 h, the tested chalcones in concentrations of 100, 50 and 10 μmol/L were added and incubation proceeded for the next 72 h. In the next step, 10 μL of MTT (5 mg/mL) was added to each well containing cells and incubated for another 4 h at 37 °C during which MTT was metabolized to insoluble formazan in cells. After 4 h, 100 μL of a 10% sodium dodecyl sulphate (SDS) was added to each well and another 24 h were allowed for the formazan crystals to dissolve. The metabolic activity of cells was evaluated by measuring the absorbance at wavelength 540 nm using the automated Cytation™ 3 Cell Imaging Multi-Mode Reader (Biotek, Winooski, VT, USA). Three independent analyses were performed.

A2058 = format: cell-based, human; settings: Homo sapiens; A2058, 72 h incubation
Protocol: as §1, §2

MCF-10A = format: cell-based; settings: Homo sapiens; MCF-10A noncancer cell line, 72 h incubation
Protocol: as §1, §2

SMILES | IC50 (BLM) [µM] | IC50 (A2058) [µM] | IC50 (MCF-10A) [µM]
COn1cc(/C=C/C(=O)c2ccccc2F)c2ccccc21 [ZKCH-11A, (2E)-1-(2-fluorophenyl)-3-(1-methoxy-1H-indol-3-yl)prop-2-en-1-one] | 35.3 ± 6.1 | 31.9 ± 0.95 | 85 ± 2.19
CCOc1[nH]c2ccccc2c1/C=C/C(=O)c1ccccc1F [ZKCH-11C, (2E)-3-(2-ethoxy-1H-indol-3-yl)-1-(2-fluorophenyl)prop-2-en-1-one] | 38.55 ± 0.06 | 41.6 ± 0.73 | > 100
CC(C)Oc1[nH]c2ccccc2c1/C=C/C(=O)c1ccccc1F [ZKCH-11E, (2E)-1-(2-fluorophenyl)-3-[2-(propan-2-yloxy)-1H-indol-3-yl]prop-2-en-1-one] | 33.8 ± 2.14 | 37.3 ± 2.28 | 44.7 ± 4.96
CCCCOc1[nH]c2ccccc2c1/C=C/C(=O)c1ccccc1F [ZKCH-11F, (2E)-3-(2-butoxy-1H-indol-3-yl)-1-(2-fluorophenyl)prop-2-en-1-one] | 47.7 ± 1.49 | 45.8 ± 2.54 | > 100
CC(C)COc1[nH]c2ccccc2c1/C=C/C(=O)c1ccccc1F [ZKCH-11G, (2E)-1-(2-fluorophenyl)-3-[2-(2-methylpropoxy)-1H-indol-3-yl]prop-2-en-1-one] | 39.5 ± 3.9 | 40 ± 1.37 | 51.3 ± 3.94
O=C(/C=C/c1c[nH]c2ccccc12)c1ccccc1F [ZKCH-11H, (2E)-1-(2-fluorophenyl)-3-(1H-indol-3-yl)prop-2-en-1-one] | 40.9 ± 2.62 | 42.4 ± 2.98 | 60.7 ± 3.09
